Source: PubChem BioAssay (NCI)
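1) Cells in 96-well plates. 2) Compound, 48 h, 5 concentrations. 3) Linear interpolation between surrounding doses. 4) Unreached endpoint = highest concentration. GI50 = concentration required for 50% inhibition of growth. TGI is the concentration that stops growth completely.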

Experiments:
Test in all cases: inhibition of tumour cell growth, NCI panel, 48 h
MALME-3M melanoma = tested on: MALME-3M melanoma
SN12C renal = tested on: SN12C renal
DU-145 prostate = tested on: DU-145 prostate
OVCAR-5 ovarian = tested on: OVCAR-5 ovarian
U251 CNS = tested on: U251 CNS
EKVX NSCLC = tested on: EKVX NSCLC
SF-268 CNS = tested on: SF-268 CNS
HS 578T breast = tested on: HS 578T breast
MCF7 breast = tested on: MCF7 breast
HT29 colon = tested on: HT29 colon

| SMILES | GI50 (MALME-3M melanoma) [µM] | TGI (MALME-3M melanoma) [µM] | GI50 (SN12C renal) [µM] | TGI (SN12C renal) [µM] | GI50 (DU-145 prostate) [µM] | TGI (DU-145 prostate) [µM] | GI50 (OVCAR-5 ovarian) [µM] | TGI (OVCAR-5 ovarian) [µM] | GI50 (U251 CNS) [µM] | TGI (U251 CNS) [µM] | GI50 (EKVX NSCLC) [µM] | TGI (EKVX NSCLC) [µM] | GI50 (SF-268 CNS) [µM] | TGI (SF-268 CNS) [µM] | GI50 (HS 578T breast) [µM] | TGI (HS 578T breast) [µM] | GI50 (MCF7 breast) [µM] | TGI (MCF7 breast) [µM] | GI50 (HT29 colon) [µM] | TGI (HT29 colon) [µM] |
| --- | --- | --- | --- | --- | --- | --- | --- | --- | --- | --- | --- | --- | --- | --- | --- | --- | --- | --- | --- | --- |
| C=C1CC[C@@H]2[C@](C)(COC(C)=O)[C@H](OC(C)=O)CC[C@@]2(C)[C@@H]1CC(Nc1ccc(S(=O)(=O)Nc2ccc(Cl)nn2)cc1)C1=CCOC1=O (some centres undefined) | 1.72 | 3.9 | 1.25 | 3.66 | 1.7 | 3.45 | 2.01 | 4.16 | 1.68 | 3.05 | 4.53 | 17 | 1.8 | 3.67 | 6.17 | > 100 | – | – | – | – |
| CCOC(=O)c1cc2c(n1Cc1cc(OC)c(OC)c(OC)c1)-c1oncc1CCC2 | 0.061 | > 52.3 | 0.628 | > 40.1 | 0.302 | 6.87 | 0.481 | > 100 | 0.214 | 5.01 | – | – | 0.657 | > 60.2 | 0.343 | > 100 | 0.0589 | > 66.5 | 0.138 | 2.67 |
| O=C(NC(=Nc1ccccc1)SCCSC(=Nc1ccccc1)NC(=O)c1cccs1)c1cccs1 | – | > 100 | – | > 100 | – | – | – | > 100 | – | > 100 | – | > 100 | – | – | – | – | – | – | – | > 100 |
| COc1ccc(CC2(Cc3ccc(OC)cc3)CCOC2=O)cc1 | – | > 100 | – | > 100 | – | – | – | > 100 | – | > 100 | – | > 100 | – | > 100 | – | – | – | – | – | > 100 |
| CCOc1ccc(NC(=O)C(=O)C(C(=O)c2ccc3ccccc3c2)C2OC(=O)c3ccccc32)cc1 (centres undefined) | – | 77.4 | – | 44 | – | – | – | 84.9 | – | 24.4 | – | > 100 | – | 62.4 | – | – | – | – | – | > 100 |
| [O-]c1ccccc1/C=N/C(/N=C/c1ccccc1[O-])c1ccccc1O.[O-]c1ccccc1/C=N/C(/N=C/c1ccccc1[O-])c1ccccc1O.[Zr+4] | – | – | 57.3 | > 100 | – | – | 30 | > 100 | 36.7 | > 100 | 46.1 | > 100 | 28 | > 100 | 12.5 | 60 | 35.9 | > 100 | 42 | > 100 |
| COc1cccc(NC(=O)CC(=O)N2N=C(n3ccc4ccccc43)CC2c2ccccc2)c1 (centres undefined) | – | > 100 | – | > 100 | – | – | – | > 100 | – | > 100 | – | > 100 | – | > 100 | – | – | – | – | – | > 100 |
| O=C(N/C(=C\c1ccc(/C=C(\NC(=O)c2ccccc2)c2nc3ccccc3[nH]2)cc1)c1nc2ccccc2[nH]1)c1ccccc1 | – | > 100 | – | > 100 | – | – | – | > 100 | – | > 100 | – | > 100 | – | > 100 | – | – | – | – | – | > 100 |
| CC(=O)[CH-]C(=O)c1ccccc1.CC(=O)[CH-]C(=O)c1ccccc1.CC(=O)[CH-]C(=O)c1ccccc1.[In+3] | 25.2 | 84.1 | 21.2 | > 100 | – | – | 42.7 | > 100 | 22.8 | > 100 | – | – | 19.9 | > 100 | – | – | – | – | 31.9 | > 100 |
| C[C@]12CCC(=O)CC1CCCC2=O (some centres undefined) | – | > 100 | – | > 100 | – | – | – | – | – | > 100 | – | > 100 | – | > 100 | – | – | – | – | – | > 100 |
| CCc1ccccc1NC(=O)/C(N=O)=C(/C)O | – | > 100 | – | > 100 | – | – | – | – | – | > 100 | – | > 100 | – | > 100 | – | – | – | – | – | > 100 |
| COc1ccc(C2=C(c3ccc(OC)c(OC)c3)C(=O)N3CCCC3C2)cc1 (centres undefined) | > 71.4 | > 100 | 45.7 | > 100 | 30.8 | > 86.8 | > 100 | > 100 | 7.47 | > 100 | – | – | 9.44 | > 100 | 6.71 | > 78 | 31.8 | > 100 | 13.6 | > 100 |
| COc1cnc2c(c1)C(=O)c1c-2n(CCCNC2=NCCS2)c(=O)c2cc(Cl)ccc12 | – | – | – | – | 0.0929 | 1.83 | 1.82 | 3.45 | 0.0546 | 1.82 | 1.64 | 3.39 | 0.088 | 2.06 | – | – | 0.0366 | 1.32 | 0.121 | 2.23 |
| Cc1ccc(-c2nc3nc(-c4ccccc4)nc(N4CCNCC4)c3o2)cc1 | 1.81 | 3.59 | 0.849 | 2.31 | 0.508 | 1.73 | 1.31 | 2.74 | 0.181 | 0.338 | 1.74 | 3.24 | 1.75 | 4.02 | – | – | 0.401 | 1.73 | 0.242 | 0.567 |
| CC1(C)CC2CC(CC(C)(C)C2=O)C1=O | – | > 100 | – | > 100 | – | – | – | > 100 | – | > 100 | – | > 100 | – | > 100 | – | – | – | – | – | > 100 |
| CCc1cccc(C)c1NC(=O)C1=C(C)NC(C)=C(C(=O)Nc2c(C)cccc2CC)C1c1ccc2c(c1)OCO2 | – | 30.5 | – | 42.6 | – | – | – | 44.5 | – | 32.1 | – | 58.6 | – | 59.5 | – | – | – | – | – | 39.4 |
| Nc1c(C(=O)c2cccc(C#CCO)c2)cnn1-c1ccc(F)cc1 | > 25 | > 25 | > 25 | > 25 | > 25 | > 25 | > 25 | > 25 | > 25 | > 25 | – | – | > 25 | > 25 | 5.18 | > 25 | > 25 | > 25 | > 25 | > 25 |
| COc1ccc2nc3cc(Cl)ccc3c(SCC(=O)Nc3ccccc3-c3ccccc3NC(=O)CSc3c4ccc(Cl)cc4nc4ccc(OC)cc34)c2c1 | – | > 100 | – | > 100 | – | – | – | > 100 | – | > 100 | – | > 100 | – | > 100 | – | – | – | – | – | > 100 |
| CCCN(CCC)C(=O)C(=O)c1c(N)[nH]n(-c2ccccc2)c1=O | – | > 100 | – | > 100 | – | – | – | > 100 | – | > 100 | – | > 100 | – | > 100 | – | – | – | – | – | > 100 |
